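Each compound was tested at five concentrations against cells in 96-well plates for 48 hours. GI50 = concentration required for 50% inhibition of growth. TGI marks complete inhibition of growth.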
Key:
Assay in all cases: inhibition of tumour cell growth, NCI panel, 48 h
SF-295 CNS = system: SF-295 CNS
OVCAR-5 ovarian = system: OVCAR-5 ovarian
HS 578T breast = system: HS 578T breast
SW-620 colon = system: SW-620 colon
HOP-62 NSCLC = system: HOP-62 NSCLC
COLO 205 colon = system: COLO 205 colon
NCI/ADR-RES ovarian = system: NCI/ADR-RES ovarian
SF-539 CNS = system: SF-539 CNS
OVCAR-4 ovarian = system: OVCAR-4 ovarian
CAKI-1 renal = system: CAKI-1 renal
HOP-92 NSCLC = system: HOP-92 NSCLC
MDA-N = system: MDA-N
SR leukemia = system: SR leukemia
RPMI-8226 leukemia = system: RPMI-8226 leukemia
BT-549 breast = system: BT-549 breast
UO-31 renal = system: UO-31 renal
LOX IMVI melanoma = system: LOX IMVI melanoma

Row | Compound | TGI (SF-295 CNS) [µM] | TGI (OVCAR-5 ovarian) [µM] | TGI (HS 578T breast) [µM] | TGI (SW-620 colon) [µM] | TGI (HOP-62 NSCLC) [µM] | TGI (COLO 205 colon) [µM] | TGI (NCI/ADR-RES ovarian) [µM] | TGI (SF-539 CNS) [µM] | TGI (OVCAR-4 ovarian) [µM] | TGI (CAKI-1 renal) [µM] | TGI (HOP-92 NSCLC) [µM] | TGI (MDA-N) [µM] | TGI (SR leukemia) [µM] | TGI (RPMI-8226 leukemia) [µM] | TGI (BT-549 breast) [µM] | TGI (UO-31 renal) [µM] | TGI (LOX IMVI melanoma) [µM] | GI50 (HOP-62 NSCLC) [µM] | GI50 (HOP-92 NSCLC) [µM]
1 | CN(/N=C/c1ccccn1)C1=NCCN1 | > 100 | > 100 | > 100 | > 100 | > 100 | > 100 | > 100 | > 100 | > 100 | > 100 | > 100 | > 100 | > 100 | > 100 | > 100 | > 100 | > 100 |  | 
2 | CC[C@@H]1CC[C@@H]2[C@H](CC[C@]3(C)[C@@H](O[N+](=O)[O-])CC[C@@H]23)[C@H]1C(C)=O | > 100 | > 100 | > 100 | > 100 | > 100 | 24.4 | > 100 | > 100 | > 100 | > 100 | 70.2 | > 100 | > 100 | 49.9 | > 100 | > 100 | 39.5 |  | 
3 | CC1(c2ccc(Cl)cc2)C=C(c2ccc(Cl)cc2)C(C#N)=C(C(C#N)C#N)N1 (configuration not stated) | 33.9 | 33 | 29.4 | > 100 | 31.9 | 32.8 | 39.9 | 43.9 | 32.6 | 32.2 |  | 31.8 | 73.8 | > 100 | 43.3 | 30.5 | 32.3 |  | 
4 | COc1ccc(/C=C2\C[C@H]3[C@@H]4CC=C5C[C@@H](O)CC[C@]5(C)[C@H]4CC[C@]3(C)\C2=N\O)cc1 | 34.8 |  | 37.5 | > 100 | > 100 | 29 | > 100 | > 100 | > 100 | 19.3 | > 100 | > 100 | 19 | 21.9 | 36.5 | 71.6 | 33.3 |  | 
5 | CN(Cc1cccc2ccsc12)/N=C\c1ccc(Cl)cc1 | > 100 | > 100 | > 100 | > 100 | > 100 | > 100 | > 100 |  | > 100 | > 100 | > 100 | > 100 | > 100 |  | > 100 | > 100 | > 100 |  | 
6 | NC1=C(c2nc(-c3ccccc3)cs2)C(c2ccco2)c2c(c3ccccc3oc2=O)O1 (configuration not stated) | > 100 | > 100 | > 100 | > 100 | > 100 | > 100 | > 100 | > 100 | > 100 | > 100 | > 100 | > 100 | > 100 |  | > 100 | > 100 | > 100 |  | 
7 | Nc1nccc(NCC2(CO)CC(CCc3ccccc3)C2)n1 (configuration not stated) | 26.4 | 34.2 | 52.9 | 43.7 | 38 | 29.5 | 75.7 | 32.1 | 47.2 | 28.6 |  | 31.4 | 52.6 | 51 | 40.3 | 32.3 | 34.4 |  | 
8 | C(=NC12CC3CC(CC(C3)C1)C2)C1CCCCC1 | > 100 | > 100 | > 100 | > 100 | > 100 | > 100 | > 100 | > 100 | > 100 | > 100 | > 100 | > 100 | > 100 | > 100 | > 100 | > 100 |  |  | 
9 | O[C@@H]1[C@H](OC2c3ccccc3-c3ccccc32)[C@H](OCc2ccccc2)[C@@H]2OC[C@H]1O2 | > 100 | > 100 | > 100 | > 100 | 80 | > 100 | > 100 | 81.7 | > 100 | > 100 | > 100 | > 100 |  | > 100 | > 100 | > 100 | > 100 |  | 
10 | Cc1cnc2[nH]c(-c3cccc4ccccc34)cc(=O)c2c1 | > 100 | > 100 | > 100 | > 100 | > 100 | 0.00496 | > 100 |  | > 100 | > 100 | 33.5 | 0.000572 | > 100 | 28.2 | > 100 | 34 | 79.6 | 0.127 | 0.0464
11 | Cc1[nH]c(=O)c2oc3cc4ccccc4cc3c2c1C(=O)O | > 10 | > 10 | > 10 | > 10 |  |  | > 10 | > 10 | > 10 |  | > 10 | > 10 | > 10 |  | > 10 | > 10 | > 10 |  | 
12 | O=C(OC1OC2COC(=O)c3cc(O)c(O)c(O)c3-c3c(cc(O)c(O)c3O)C(=O)OC3C2OC(=O)[C@@]24CC(=O)[C@@](O)(OC25C(=O)O[C@H]2[C@@H](O)CO[C@@]25O)C2(O)Oc5c(O)c(O)cc(c5C24)C(=O)OC13)c1cc(O)c(O)c(O)c1 (some centres not stated) | > 100 | > 100 | > 100 | > 100 | > 100 | > 100 | > 100 |  | > 100 | 32.1 | > 100 | > 100 | 94.6 | > 100 | > 100 | > 100 | 25.1 |  | 
13 | N#CCC(=O)N/N=C\C(O)C(O)C(O)C(O)CO (configuration not stated) | > 100 | > 100 | > 100 | > 100 | > 100 |  | > 100 | > 100 |  | > 100 |  | > 100 | > 100 | > 100 | > 100 | > 100 | > 100 |  | 
14 | COC(=O)/C(=N\N)C(C(=O)C(=O)Nc1cc(Cl)ccc1Cl)c1nc2ccc([N+](=O)[O-])cc2[nH]c1=O (configuration not stated) | > 100 | > 100 | > 100 | > 100 | > 100 |  | > 100 | > 100 | > 100 | > 100 | > 100 | > 100 |  | > 100 | > 100 | > 100 | > 100 |  | 
15 | O=C(O)CCC(NC(=O)c1ccc(Nc2nc3ccc(C(F)(F)F)cc3nc2C(=O)O)cc1)C(=O)O (configuration not stated) | > 100 | > 100 | > 100 | > 100 | > 100 | > 100 | > 100 | > 100 |  |  | > 100 | > 100 | > 100 | > 100 | > 100 | > 100 | > 100 |  | 
16 | Cc1cccc(C)c1NC(=O)C(=O)CC(=O)c1sc(Nc2c(C)cccc2C)nc1C | > 100 | > 100 | > 100 | > 100 | > 100 | > 100 | > 100 | > 100 | > 100 | > 100 | > 100 | > 100 |  | > 100 | > 100 | > 100 | > 100 |  | 
17 | CCOC(=O)c1nc2ccc(C(F)(F)F)cc2nc1Oc1ccc(OC)cc1 | > 100 | > 100 | > 100 | > 100 | > 100 | > 100 | > 100 | > 100 | > 100 | > 100 | > 100 | > 100 |  | > 100 | > 100 | > 100 | > 100 |  | 
18 | C=C1CC[C@@H]2[C@](C)(COC(=O)CCC(=O)OC)CCC[C@@]2(C)[C@@H]1CCC1=CC(=O)OC1 | > 100 | > 100 | > 100 | > 100 | > 100 | > 100 | > 100 | > 100 | > 100 | 81.3 |  | > 100 | 51.4 | 34.2 | > 100 | > 100 | > 100 |  | 
19 | NC(Cc1cc(I)c(Oc2ccc(O)c(I)c2)c(I)c1)C(=O)O (configuration not stated) | > 100 | > 100 | > 100 | > 100 | > 100 | > 100 | > 100 |  | > 100 | > 100 | > 100 | > 100 |  | 84 | > 100 | > 100 | > 100 |  | 
20 | Cc1ccc2c(c1C)CC1(Cc3ccc(C)c(C)c3C1=O)C2=O (configuration not stated) | > 100 | > 100 | > 100 | > 100 |  | > 100 | > 100 | > 100 | > 100 | > 100 | 87 | > 100 | > 100 | > 100 | > 100 | > 100 | > 100 |  | 
21 | COC(=O)C(=O)C(C(=O)C(=O)Nc1cccc(OC)c1)c1nc2ccc(Cl)cc2[nH]c1=O (configuration not stated) | > 100 | > 100 | > 100 | > 100 |  | > 100 | > 100 | > 100 | > 100 | > 100 | > 100 | > 100 |  | > 100 | > 100 | > 100 | > 100 |  | 
22 | COc1cc(Nc2cc(Cl)cc(Cl)c2)nc(N)n1 | 38.3 | > 100 | 57 | 59.8 | 36.6 | 44.2 | 45.4 | 33 | 54 | 42.8 | 32.1 | 62.3 |  | 56.5 | 40.8 | 31.2 | 32.2 |  | 
23 | C=CCN(c1cc(O)c2c(c(C)cn2S(=O)(=O)c2ccccc2)c1[N+](=O)[O-])S(C)(=O)=O | > 100 | > 100 | > 100 | > 100 | > 100 | > 100 | > 100 | > 100 | > 100 | > 100 | > 100 | > 100 |  | > 100 | > 100 | > 100 | > 100 |  | 
24 | Cc1cc2nnn(C3CCCCO3)c2cc1C (configuration not stated) | > 100 | > 100 | > 100 |  | > 100 | > 100 | > 100 | > 100 | > 100 | > 100 |  | > 100 | > 100 |  | > 100 | > 100 |  |  | 
25 | CC(C)C(=O)Cc1ccc2ccccc2n1 | > 100 | > 100 | > 100 | > 100 | > 100 | > 100 | > 100 |  | > 100 | > 100 | > 100 | > 100 |  | 19.9 | > 100 | > 100 | > 100 |  | 
26 | N#CC1=C(S)N(C2OC(CO)C(O)C(O)C2O)C(c2ccccc2)=CC1c1ccco1 (configuration not stated) | > 100 | > 100 | > 100 |  | > 100 |  | > 100 | > 100 | > 100 | > 100 | > 100 | > 100 | > 100 | > 100 | > 100 | > 100 | 93 |  | 
27 | Clc1ccc(C(OCn2ccnc2)c2nc3ccccc3[nH]2)c(Cl)c1 (configuration not stated) | > 100 | > 100 | > 100 | > 100 | > 100 | > 100 | > 100 | > 100 | > 100 | > 100 | 10.1 | > 100 |  | 92.4 | 81.7 | 92.1 | > 100 |  | 
28 | O=[N+]([O-])c1ccc2c3c1[C@@H]1O[C@@H]1c1cccc(c1-3)[C@@H]1O[C@H]21 | 40.8 | 31.3 | 19.7 | 6.7 | 34.4 | 23.1 | > 38.5 | 4.02 | 9.48 | 3.2 | 28.6 | 10.5 | > 100 | > 100 | 21.1 |  | 3.44 |  | 
